Laboratory results as given in PubChem BioAssay AID504755 (Southern Research Specialized Biocontainment Screening …, 2011).
Active and inactive are the calls of the source.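 Rule for the calls: active = viability under 80% of untreated control mean at any tested dose, taken as cytotoxic; inactive = the rest.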

The compounds below were run on PC3 viability, CellTiter-Glo luminescence, 72 h (assay: PC3 prostate cell cytotoxicity, dose response, cytotoxicity control for HSV oncolysis enhancer project, selected hits (AID 504755)).
`COc1ccc(C(=O)OCCN2CCCN(CCOC(=O)c3ccc(OC)cc3)CC2)cc1` was tested, and the CC50 was > 100 µM (inactive).
In the case of `COc1cc(C(=O)OCCN2CCCN(C)CC2)cc(OC)c1OC`, the CC50 is reported as > 100 µM (inactive).
For `COc1cc(C(=O)N2CCCN(C(=O)c3cc(OC)c(OC)c(OC)c3)CC2)cc(OC)c1OC`, the CC50 was > 100 µM (inactive).
For `CN1CCCN(CCCOC(=O)c2ccccc2)CC1`, the CC50 was > 100 µM (inactive).
In the case of `CNCCN(C)CCCOC(=O)c1ccc(F)cc1`, the CC50 is reported as > 100 µM (inactive).
For `COc1cc(COCCCN2CCCN(CCCOCc3cc(OC)c(OC)c(OC)c3)CC2)cc(OC)c1OC`, the CC50 was > 100 µM (inactive).
`COc1ccc(C(=O)OCCCN2CCN(C)CC2)cc1` was tested, and the CC50 was > 100 µM (inactive).
With `COc1cc(C(=O)OCCCN2CCN(C)CC2)cc(OC)c1OC` the CC50 was > 100 µM (inactive).
For `COc1ccc(C(=O)OCCN2CCCN(Cc3ccccc3)CC2)cc1`, the CC50 was > 100 µM (inactive).
`CNCCN(C)CCCOC(=O)c1ccc(OC)cc1` was tested, and the CC50 was > 100 µM (inactive).
With `COc1cc(C(=O)OCCCN2CCCN(C)CC2)cc(OC)c1OC` the CC50 was > 100 µM (inactive).
`COc1cc(C(=O)OCCCN2CCCN(CCCOC(=O)c3cc(OC)c(OC)c(OC)c3)CC2)cc(OC)c1OC` was tested, and the CC50 was > 100 µM (inactive).
With `COc1ccc(C(=O)NCCCN2CCCN(C)CC2)cc1` the CC50 was > 100 µM (inactive).
For `CNCCN(C)CCOC(=O)c1cc(OC)cc(OC)c1`, the CC50 was > 100 µM (inactive).
With `COc1ccc(N2C(=O)CC(N3CCCN(C4CC(=O)N(c5ccc(OC)cc5)C4=O)CC3)C2=O)cc1` (stereo not drawn) the CC50 was > 100 µM (inactive).
`COc1cc(C(=O)OCCN2CCN(C)CC2)cc(OC)c1OC` was tested, and the CC50 was > 100 µM (inactive).
In the case of `COc1cc(OC)cc(C(=O)OCCN2CCCN(CCOC(=O)c3cc(OC)cc(OC)c3)CC2)c1`, the CC50 is reported as > 100 µM (inactive).
For `COc1cc(C(=O)OCCCN2CCN(CCCOC(=O)c3cc(OC)c(OC)c(OC)c3)CC2)cc(OC)c1OC`, the CC50 was > 100 µM (inactive).
`CN1CCN(CCCOC(=O)c2ccc(F)cc2)CC1` was tested, and the CC50 was > 100 µM (inactive).
For `COc1ccc(C(=O)OCCN2CCN(CCOC(=O)c3ccc(OC)cc3)CC2)cc1`, the CC50 was > 100 µM (inactive).
For `O=C(/C=C/c1ccc2c(c1)OCO2)N1CCCN(C(=O)/C=C/c2ccc3c(c2)OCO3)CC1`, the CC50 was > 100 µM (inactive).
With `COc1cc(OC)cc(C(=O)OCCCNCCNCCCOC(=O)c2cc(OC)cc(OC)c2)c1` the CC50 was 31.7 µM.
`COc1ccc(C(=O)OCCCNCCNCCCOC(=O)c2ccc(OC)cc2)cc1` showed a CC50 of 24.1 µM.
With `O=C(OCCCN1CCCN(CCCOC(=O)c2ccc(F)cc2)CC1)c1ccc(F)cc1` the CC50 was 73.6 µM.
`COc1ccc(C(=O)OCCN2CCCN(C)CC2)cc1` was tested, and the CC50 was > 100 µM (inactive).
`COc1cc(NC(=O)N2CCCN(C(=O)Nc3cc(OC)c(OC)c(OC)c3)CC2)cc(OC)c1OC` was tested, and the CC50 was > 100 µM (inactive).
`COc1cc(OC)cc(C(=O)OCCN2CCN(C)CC2)c1` was tested, and the CC50 was > 100 µM (inactive).
With `COc1ccc(C(=O)OCCCN2CCOCC2)cc1` the CC50 was > 100 µM (inactive).
With `COc1cc(C(=O)NCCCN2CCCN(CCCNC(=O)c3cc(OC)c(OC)c(OC)c3)CC2)cc(OC)c1OC` the CC50 was > 100 µM (inactive).
`O=C(CCN1CCCN(CCC(=O)Nc2ccccc2)CC1)Nc1ccccc1` was tested, and the CC50 was > 100 µM (inactive).
`COc1cc(C(=O)OCCCN2CCCN(C(=O)c3ccccc3)CC2)cc(OC)c1OC` was tested, and the CC50 was > 100 µM (inactive).
In the case of `COc1cc(OC)cc(C(=O)OCCCN2CCN(CCCOC(=O)c3cc(OC)cc(OC)c3)CC2)c1`, the CC50 is reported as 102 µM.
For `COc1cc(OC)cc(C(=O)OCCCN2CCCN(Cc3ccccc3)CC2)c1`, the CC50 was > 100 µM (inactive).
In the case of `COc1cc(C(=O)OCCN2CCCN(Cc3ccccc3)CC2)cc(OC)c1OC`, the CC50 is reported as > 100 µM (inactive).
In the case of `COc1cc(C(=O)OCCCN2CCCC2)cc(OC)c1OC`, the CC50 is reported as > 100 µM (inactive).
For `COc1ccc(C(=O)OCCCN2CCN(CCCOC(=O)c3ccc(OC)cc3)CC2)cc1`, the CC50 was > 100 µM (inactive).
For `COc1cc(C(=O)OCCN2CCCC2)cc(OC)c1OC`, the CC50 was > 100 µM (inactive).
In the case of `CN1CCCN(CCCOC(=O)c2ccc(F)cc2)CC1`, the CC50 is reported as > 100 µM (inactive).
With `O=C(CN1CCCN(CC(=O)CN2C(=O)c3ccccc3C2=O)CC1)CN1C(=O)c2ccccc2C1=O` the CC50 was > 100 µM (inactive).
In the case of `COc1cc(CN2CCCN(Cc3cc(OC)c(OC)c(OC)c3)CC2)cc(OC)c1OC`, the CC50 is reported as > 100 µM (inactive).
For `COc1cc(OC)cc(C(=O)OCCN2CCCN(C)CC2)c1`, the CC50 was > 100 µM (inactive).
`COc1cc(C(=O)OCCCN2CCCN(C(C)=O)CC2)cc(OC)c1OC` was tested, and the CC50 was > 100 µM (inactive).
With `COc1cc(C(=O)OCCN2CCCN(CCOC(=O)c3cc(OC)c(OC)c(OC)c3)CC2)cc(OC)c1OC` the CC50 was > 100 µM (inactive).
For `O=C(NCCCN1CCN(CCCNC(=O)c2ccc3c(c2)OCO3)CC1)c1ccc2c(c1)OCO2`, the CC50 was > 100 µM (inactive).
For `COc1cc(OC)cc(C(=O)OCCCN2CCCN(C)CC2)c1`, the CC50 was > 100 µM (inactive).
For `COc1cc(C(=O)OCCCN2CCCN(C(=O)OC(C)(C)C)CC2)cc(OC)c1OC`, the CC50 was > 100 µM (inactive).
In the case of `CN1CCN(CCCOC(=O)c2ccccc2)CC1`, the CC50 is reported as > 100 µM (inactive).
For `COc1cc(C(=O)OCCN2CCN(CCOC(=O)c3cc(OC)c(OC)c(OC)c3)CC2)cc(OC)c1OC`, the CC50 was > 100 µM (inactive).
In the case of `COc1cc(OC)cc(C(=O)OCCN2CCOCC2)c1`, the CC50 is reported as > 100 µM (inactive).
`COc1cc(-c2cn(CCCN3CCCN(CCCn4cc(-c5cc(OC)c(OC)c(OC)c5)nn4)CC3)nn2)cc(OC)c1OC` was tested, and the CC50 was > 100 µM (inactive).
In the case of `COc1cc(OC)cc(C(=O)OCCN2CCN(CCOC(=O)c3cc(OC)cc(OC)c3)CC2)c1`, the CC50 is reported as > 100 µM (inactive).
`COc1cc(C(=O)OCCCN2CCCNCC2)cc(OC)c1OC` was tested, and the CC50 was > 100 µM (inactive).
In the case of `NCCCN1CCCN(CCCN)CC1`, the CC50 is reported as > 100 µM (inactive).
In the case of `COc1cc(OC)cc(C(=O)OCCCN2CCN(C)CC2)c1`, the CC50 is reported as > 100 µM (inactive).
For `COc1cc(OC)cc(C(=O)OCCN2CCCC2)c1`, the CC50 was > 100 µM (inactive).
`COc1ccc(C(=O)OCCN2CCN(C)CC2)cc1` was tested, and the CC50 was > 100 µM (inactive).
For `O=C(OCCCN1CCOCC1)c1ccc(F)cc1`, the CC50 was > 100 µM (inactive).
`COc1cc(C(=O)OCCCN2CCOCC2)cc(OC)c1OC` was tested, and the CC50 was > 100 µM (inactive).
For `O=C(OCCCN1CCN(CCCOC(=O)c2ccc(F)cc2)CC1)c1ccc(F)cc1`, the CC50 was > 100 µM (inactive).
`CNCCN(C)CCOC(=O)c1cc(OC)c(OC)c(OC)c1` was tested, and the CC50 was > 100 µM (inactive).
`O=C(OCCCN1CCN(CCCOC(=O)c2ccccc2)CC1)c1ccccc1` was tested, and the CC50 was > 100 µM (inactive).
With `COc1cc(C(=O)OCCN2CCOCC2)cc(OC)c1OC` the CC50 was > 100 µM (inactive).
For `COc1cc(NC(=O)Nc2cc(OC)c(OC)c(OC)c2)cc(OC)c1OC`, the CC50 was > 100 µM (inactive).
For `COc1ccc(C(=O)OCCCN2CCCC2)cc1`, the CC50 was > 100 µM (inactive).
For `COc1cccc(C(=O)NCCCN2CCN(CCCNC(=O)c3cccc(OC)c3)CC2)c1`, the CC50 was > 100 µM (inactive).
`CC(=O)NCCCN1CCCN(CCCNC(C)=O)CC1` was tested, and the CC50 was > 100 µM (inactive).
For `COc1cc(C(=O)OCCCN(C)CCN(C)CCCOC(=O)c2cc(OC)c(OC)c(OC)c2)cc(OC)c1OC`, the CC50 was > 100 µM (inactive).
In the case of `COc1ccc(C(=O)OCCCN2CCCN(C)CC2)cc1`, the CC50 is reported as > 100 µM (inactive).
